According to PMC6399351, “Cationic Intrinsically Disordered Antimicrobial Peptides (CIDAMPs) Represent a New Paradigm of Innate Defense with a Potential for Novel Anti-Infectives” (Scientific Reports, 2019):
Where two headings read alike, the source gives them in different places. Ends that are not written are not given here.

Key:
[1] = tested on: Streptococcus pneumoniae ATCC 33400; experiment: CFU assay of antimicrobial activity; type: cell-based; conditions: 10 mM NaP, pH 6.5, 0.25% glucose
Method: (§1) All purified peptides and recombinant proteins were applied using a colony forming unit (CFU) assay in different media. Bacteria were grown to early log-phase in BHI, washed either with 10 mM Na-P, pH 7.4/1% TSB or pH 5.5/1% TSB, or pH 5.5 without TSB or BHI, and adjusted to a concentration of 10^4–10^5 colony forming units (CFU)/ml. For cell number control, 100 µl aliquots were diluted 1:10, 1:100 and 1:1000 and plated in duplicates on BHI agar plates. To 100 µl aliquots of the bacteria, suspended in the respective medium (10 mM Na-P buffer pH 7,0–7,4/ 1% (w/v) TSB; […]; 10 mM Na-P buffer pH 7,0–7,4/ 1% (w/v) TSB pH 7,0–7,4/ 0,25% (w/v) glucose; 10 mM Na-P buffer pH 5,5/ 0,25% (w/v) glucose, respectively), 10 µl of a solution of the peptide or protein (two-fold dilutions, from 300 µg/ml or 150 µg/ml down to 19 ng/ml), dissolved in 0.01% (v/v) acetic acid, were added.
(§2) Then bacteria were incubated for 2 h at ambient temperature, if not otherwise stated. 10 µl of 0.01% (v/v) acetic acid, added to 100 µl aliquots of the bacteria in the respective medium, served as negative control. From each test, 1:10 and 1:100 dilutions were generated and plated as duplicates of 100 µl aliquots on BHI agar plates. After 16 h incubation at 37 °C, CFU were counted using a colony counter (Bio Kobe, Japan) and expressed as mean of the duplicate estimation to achieve a complete dose-response curve. All experiments were performed at serial dilutions in a concentration range of 100 µg/mL −25 ng/mL for recombinant HRNR fragments and 300 or 150 µg/mL–19 ng/mL for synthetic peptides.

[2] = tested on: Streptococcus pyogenes ATCC 12344; experiment: CFU assay of antimicrobial activity; type: cell-based; conditions: 10 mM NaP, pH 6.0, 0.25% glucose
Method: as §1, §2

[3] = tested on: Burkholderia cepacia ATCC 25416; conditions: CFU assay, 10 mM NaP, pH 5.5, 0.25% glucose
E. coli ATCC 25922 = experiment: CO-ADD MIC, broth microdilution (CLSI); type: cell-based, Escherichia coli; conditions: Mueller–Hinton broth, 5 × 10^5 CFU/mL, 18 h 37 °C, by CO-ADD
Text: (§3) They were defined as the lowest peptide
(§4) Further details of the screening

[4] = tested on: Cryptococcus neoformans ATCC 208821; experiment: CO-ADD MIC, antifungal assay (CLSI); type: cell-based; conditions: Yeast Nitrogen Base broth, 24 h 35 °C, by CO-ADD
Method: (§5) Fungi strains were cultured for 3 days on Yeast Extract-Peptone Dextrose (YPD) agar at 30 °C. A yeast suspension of 1 × 10^6 to 5 × 10^6 cells/mL (as determined by OD530) was prepared from five colonies. These stock suspensions were diluted with Yeast Nitrogen Base (YNB) broth to a final concentration of 2.5 × 10^3 CFU/mL. […] Plates were covered and incubated at 35 °C for 24 h without shaking.

[5] = tested on: Candida albicans ATCC 90028; experiment: CO-ADD MIC, antifungal assay (CLSI); type: cell-based; conditions: Yeast Nitrogen Base broth, 24 h 35 °C, by CO-ADD
Method: as §5

[6] = tested on: Enterococcus faecium DSM 2146; conditions: CFU assay, 10 mM NaP, pH 5.5, 0.25% glucose
[7] = tested on: Proteus mirabilis ATCC 21100; conditions: CFU assay, 10 mM NaP, pH 6.0, 0.25% glucose
[8] = tested on: Acinetobacter baumannii ATCC 19606; experiment: CO-ADD MIC, broth microdilution (CLSI); type: cell-based; conditions: Mueller–Hinton broth, 5 × 10^5 CFU/mL, 18 h 37 °C, by CO-ADD
Text: as §3, §4

[9] = tested on: Pseudomonas aeruginosa ATCC 27853; experiment: CO-ADD MIC, broth microdilution (CLSI); type: cell-based; conditions: Mueller–Hinton broth, 5 × 10^5 CFU/mL, 18 h 37 °C, by CO-ADD
Text: as §3, §4

[10] = tested on: Acinetobacter baumannii ATCC 19606; conditions: CFU assay, 10 mM NaP, pH 6.0, 0.25% glucose
E. coli ATCC 11775 = experiment: CFU assay of antimicrobial activity; type: cell-based, Escherichia coli; conditions: 10 mM NaP, pH 5.5, 1% TSB
In short: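 Early log-phase bacteria grown in BHI were exposed at 10^4–10^5 CFU/ml for 2 h at ambient temperature. Two-fold serial dilutions spanned 300 or 150 µg/mL–19 ng/mL (synthetic peptides) or 100 µg/mL–25 ng/mL (recombinant HRNR fragments), and colonies were counted after 16 h at 37 °C.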

C. albicans ATCC 24433 = experiment: CFU assay of antimicrobial activity; type: cell-based, Candida albicans; conditions: 10 mM NaP
P. aeruginosa ATCC 10145 = conditions: CFU assay
S. aureus ATCC 6538 = conditions: CFU assay, 10 mM NaP, pH 5.5, 0.25% glucose
[11] = tested on: Staphylococcus aureus ATCC 43300; conditions: MRSA; CLSI, Mueller–Hinton broth, 5 × 10^5 CFU/mL, 18 h 37 °C, by CO-ADD
[12] = tested on: Klebsiella pneumonia ATCC 700603; conditions: MDR strain; CLSI, Mueller–Hinton broth, 5 × 10^5 CFU/mL, 18 h 37 °C, by CO-ADD

GRHGSGLGHSSSHGQHGSGSGR [HR 1-18]
LD90 [1]: >300 µg/mL
LD90 [2]: >300 µg/mL
LD90 [3]: >300 µg/mL
Minimal inhibitory concentration (MIC) (E. coli ATCC 25922): >32 µg/mL
Minimal inhibitory concentration (MIC) [4]: >32 µg/mL
Minimal inhibitory concentration (MIC) [5]: >32 µg/mL
LD90 [6]: 150 µg/mL
LD90 [7]: >300 µg/mL
Minimal inhibitory concentration (MIC) [8]: >32 µg/mL
Minimal inhibitory concentration (MIC) [9]: >32 µg/mL
LD90 [10]: 1.18 µg/mL
LD90 (E. coli ATCC 11775): >300 µg/mL
LD90 (C. albicans ATCC 24433; pH 5.5, 0.25% glucose): 18.8 µg/mL
LD90 (C. albicans ATCC 24433; pH 5.5, 1% TSB): 150 µg/mL
LD90 (P. aeruginosa ATCC 10145; 10 mM NaP, pH 5.5, 0.25% glucose): 0.038 µg/mL
LD90 (P. aeruginosa ATCC 10145; 10 mM NaP, pH 5.5, 1% TSB): 0.15 µg/mL
LD90 (P. aeruginosa ATCC 10145; 10 mM NaP/0.25% glucose/pH 5.5, 1% TSB): 1.18 µg/mL
LD90 (P. aeruginosa ATCC 10145; 10 mM NaP/0.25% glucose/pH 5.5, 3% TSB): 37.5 µg/mL
LD90 (P. aeruginosa ATCC 10145; 10 mM NaP/0.25% glucose/pH 5.5, 10% TSB): > 300 µg/mL
LD90 (S. aureus ATCC 6538): >300 µg/mL
Minimal inhibitory concentration (MIC) [11]: >32 µg/mL
Minimal inhibitory concentration (MIC) [12]: >32 µg/mL
